Reference: patent US20140234502A1, “Treatment of Produce” (Rohm and Haas Company, priority 2009, published 2014)

Legend:
Assay type in all cases: in vivo, pear
[1] = test system: Conference Pears; assay: Examination of Conference pears for scald; conditions: Example 9, CA 6 months; for percent with scald: Italy
From the text: (§1) Pears (Conference, William's/Bartlett, or Packam's) were harvested at maturity for long storage. Number of fruits and replicates were selected according to the size of the chamber in which to apply 1-MCP and according to the statistical design. Airtight containers in the range of 1 cubic meter were used for the application of both 1-MCP and ethylene. 1-MCP was released from SmartFresh™ powder that contained 0.14% 1-MCP by weight (obtained from AgroFresh, Inc.). The amount of that SmartFresh™ powder was chosen to yield the target atmospheric concentration of 1-MCP in the chosen container. For example, the 1-MCP released from 1000 mg of that SmartFresh™ powder in 1 cubic meter yielded 1-MCP concentration in the atmosphere of 625 ppb.
(§2) The chosen amount of SmartFresh™ powder was dissolved in water into a tight flask and shaken until all the powder was dissolved. The flask was then put it into the airtight container and opened, to release the 1-MCP. At the same time of the opening of the 1-MCP flask, ethylene was injected with a syringe into the airtight container. Ethylene was taken from a compressed tank at known concentration: either taken directly or released into a flask. In the latter case the concentration was measured by gas-chromatograph to determine the quantity of volume to inject into the airtight container to get the target concentration.
(§3) The exposure to atmosphere containing either 1-MCP alone or 1-MCP and ethylene was done on cold pears (already cooled down to non-ambient storage temperature) within a maximum of 7 days from harvest and lasted 24 hours. At the end of the application, the airtight container was vented for 15 minutes and the fruits were put into RA or CA storage. RA storage was at temperature of −1° C. to 1° C. and at relative humidity of 80% to 98%. CA storage had the same temperature and humidity of RA storage, had oxygen level of 1% to 3%, by volume based on the volume of the atmosphere and had carbon dioxide level of 0.5% to 2%, by volume based on the volume of the atmosphere.
Pears from Italy (the same pears whose firmness is reported herein above in Example 5) were examined for scald after exposure to ambient conditions for the number of days shown below.

[2] = test system: Conference Pears; assay: Color rating of Conference pears; conditions: ambient 5-8 days; for Italy color / SW France color: scale of 0 (green) to 5 (yellow)
From the text: as §1, §2, §3
Pears were tested for firmness, as described above, and were rated for color on a scale of 0 (green) to 5 (yellow).

[3] = test system: Conference Pears; assay: Inspection of Conference pears for rot, bruising and internal browning
From the text: as §1, §2, §3
After RA storage, pears were exposed to ambient for the number of days shown below and then inspected for rot, bruising, and internal browning (“I.B.”). Results shown are the percentage of pears having the disorder.
Pears from SW France were examined as in Example 7, and the percent disordered fruit was as follows: […]

[4] = test system: Pears (Conference, William's/Bartlett, or Packam's); assay: Firmness of pears, summary over all Examples; conditions: each of the Examples; samples exposed to 1-MCP and not to ethylene
From the text: as §1
The chosen amount of SmartFresh™ powder was dissolved in water into a tight flask and shaken until all the powder was dissolved. The flask was then put it into the airtight container and opened, to release the 1-MCP. […] In the latter case the concentration was measured by gas-chromatograph to determine the quantity of volume to inject into the airtight container to get the target concentration. […]
Pears denoted with a single number (e.g., “300”) received 1-MCP treatment with that concentration, in ppb, of 1-MCP in the atmosphere (e.g., 300 ppb) and were not exposed to exogenous ethylene. […] Reported quantity is “firmness” (“F”), the penetrometer force in kgf.

[5] = test system: Packam's Pears; assay: Firmness of Packam's pears by penetrometer after treatment, non-ambient storage and shelf life; conditions: South Africa, ambient 5 days, listed as 600
From the text: as §1, §2, §3
In addition, samples of pears (from the same orchards from which pears treated with 1-MCP alone or 1-MCP and ethylene were harvested) were put into an airtight container for 24 hours at the temperature as the treated pears in order to reproduce the same environmental conditions. Then they were stored in the same rooms or in separated rooms in the same conditions of RA and CA as the treated pears. […]
Pears denoted with a single number (e.g., “300”) received 1-MCP treatment with that concentration, in ppb, of 1-MCP in the atmosphere (e.g., 300 ppb) and were not exposed to exogenous ethylene. […] Reported quantity is “firmness” (“F”), the penetrometer force in kgf. […]

[6] = test system: Conference Pears; assay: Firmness of Conference pears by penetrometer after treatment, non-ambient storage and shelf life; parameters: key to SW France F (firmness) / Italy F (firmness) / Average F (firmness): penetrometer force in kgf (8 mm probe); conditions: for ES A F (firmness): farm ES A; for ES B F (firmness): farm ES B; for IT F (firmness): farm IT; for firmness: Example 9, CA 6 months; for Italy F (firmness) / firmness: Italy; for Orchard #1 F (firmness) / Orchard #2 F (firmness) / Orchard #3 F (firmness): Example 11, Spain, RA 3 months
From the text: as §1, §2, §3
In addition, samples of pears (from the same orchards from which pears treated with 1-MCP alone or 1-MCP and ethylene were harvested) were put into an airtight container for 24 hours at the temperature as the treated pears in order to reproduce the same environmental conditions. Then they were stored in the same rooms or in separated rooms in the same conditions of RA and CA as the treated pears. These pears received no exposure to 1-MCP, exogenous ethylene, or any combination thereof, and they are labeled “control” below.
Length of non-ambient storage at present commercial temperature and storage regime was generally of 2-4 months in RA and 6 months in CA, unless otherwise specified, according to normal commercial practice.
All pears received the same progression of non-ambient storage followed by exposure to ambient conditions (“shelf life”).
Pears denoted with a single number (e.g., “300”) received 1-MCP treatment with that concentration, in ppb, of 1-MCP in the atmosphere (e.g., 300 ppb) and were not exposed to exogenous ethylene. Pears denoted with two numbers (e.g. “300+600”) were treated with both that concentration in ppb of 1-MCP and that concentration in ppb of ethylene (e.g., 300 ppb of 1-MCP and 600 ppb of ethylene). The firmness of pears was tested using commercial penetrometers with test probe of 8 mm diameter. Reported quantity is “firmness” (“F”), the penetrometer force in kgf.

[7] = Example 7, RA 4 months, SW France, 13 ambient days
[8] = Example 8, CA 6 months, ambient 13 days, SW France
[9] = Example 3, RA 3 months, ambient 5 to 8 days
[10] = Example 4, CA 6 months, ambient 5 to 8 days
[11] = Example 5, RA 3 months, ambient 5-8 days
[12] = Example 6, CA 6 months, ambient 5-8 days

## CC1=CC1 [Sample 1-MCP, 1-MCP]
[1]
  pears with scald (in words): fewer pears with scald than the control group
[2]; Example 6, CA 6 months, on average
  color rating (in words): undesirably too green color rating
[3]; Example 7, RA 4 months
  percentage of disorders (in words): lower percentage of disorders than the control pears
[3]; Example 8, CA 6 months, ambient 13 days
  diseased fruits (in words): fewer diseased fruits that the control sample
[3]; Examples 7, 8, and 9
  resistance to deterioration (in words): showed resistance to deterioration
[4]
  firmness (in words): undesirably high

## CC1=CC1 [600(C), 1-MCP]
[1]; 0 ambient days
  percent with scald: 0%
[1]; 7 ambient days
  percent with scald: 1%
[5]; RA for 8 weeks
  8 weeks F (firmness): 6.5 kgf
[5]; RA for 12 weeks
  12 weeks F (firmness): 6.3 kgf
[2]; Example 5, RA 3 months
  Italy color: 2.1
  SW France color: 2.95
[2]; Example 6, CA 6 months
  Italy color: 3.4
  SW France color: 2.65
[2]; Example 6, CA 6 months, average of SW France and Italy, scale 0 (green) to 5 (yellow)
  Average color: 3.0
[3]; Example 7, RA 4 months, Loire, France, 11 ambient days
  percentage of pears having internal browning (I.B.): 0 percentage
[3]; Example 7, RA 4 months, Loire, France, 13 ambient days
  percentage of pears having internal browning (I.B.): 0 percentage
[3]; Example 7, RA 4 months, Loire, France, 15 ambient days
  percentage of pears having internal browning (I.B.): 0 percentage
[3]; [7]
  percentage of pears having bruising: 0 percentage
  percentage of pears having internal browning (I.B.): 0 percentage
  percentage of pears having rot: 0 percentage
[3]; [8]
  percent disordered fruit: I.B.: 30%
  percent disordered fruit: rot: 13%
[6]; [9]
  AV F (firmness), average of the results from the seven farms: 5.7 kgf
  ES A F (firmness): 6.3 kgf
  ES B F (firmness): 6.3 kgf
  IT F (firmness): 5.7 kgf
[6]; Example 3, RA 3 months, ambient 5 to 8 days, farm FR A
  FR A F (firmness): 5.4 kgf
[6]; Example 3, RA 3 months, ambient 5 to 8 days, farm FR B
  FR B F (firmness): 5.2 kgf
[6]; Example 3, RA 3 months, ambient 5 to 8 days, farm NL A
  NL A F (firmness): 5.3 kgf
[6]; Example 3, RA 3 months, ambient 5 to 8 days, farm NL B
  NL B F (firmness): 5.6 kgf
[6]; [10]
  Av F (firmness), average of the results from the six farms: 5.4 kgf
  ES A F (firmness): 6.1 kgf
  ES B F (firmness): 5.6 kgf
  IT F (firmness): 4.9 kgf
[6]; Example 4, CA 6 months, ambient 5 to 8 days, farm FR
  FR F (firmness): 5.1 kgf
[6]; Example 4, CA 6 months, ambient 5 to 8 days, farm NL A
  NL A F (firmness): 5.1 kgf
[6]; Example 4, CA 6 months, ambient 5 to 8 days, farm NL B
  NL B F (firmness): 5.7 kgf
[6]; [11]
  Italy F (firmness): 5.7
  SW France F (firmness): 5.2
[6]; [12]
  Italy F (firmness): 4.9
  SW France F (firmness): 5.1
[6]; Example 6, CA 6 months, ambient 5-8 days, average of SW France and Italy
  Average F (firmness): 5.0
[6]; 0 ambient days
  firmness: 6.8 kgf
[6]; 7 ambient days
  firmness: 4.9 kgf
[6]; Example 10, RA 3 months, ambient 5 days
  Average F (firmness), average of the two orchards: 5.58 kgf
[6]; Example 10, RA 3 months, ambient 5 days, NL A
  NL A F (firmness): 5.65 kgf
[6]; Example 10, RA 3 months, ambient 5 days, NL B
  NL B F (firmness): 5.52 kgf
[6]; 0 days ambient
  Orchard #1 F (firmness): 5.95 kgf
  Orchard #2 F (firmness): 6.07 kgf
  Orchard #3 F (firmness): 6.46 kgf
[6]; 7 days ambient
  Orchard #1 F (firmness): 5.95 kgf
  Orchard #2 F (firmness): 6.03 kgf
  Orchard #3 F (firmness): 6.30 kgf
[6]; 12 days ambient
  Orchard #1 F (firmness): 5.75 kgf
  Orchard #2 F (firmness): 6.17 kgf
  Orchard #3 F (firmness): 6.58 kgf
